m = 2'-O-methyl; r = 2'-OH (RNA)
How the values were obtained:
TLR7/8 = assay: Cytokine induction in human PBMCs by immunostimulatory RNA, alone or co-formulated with modified ssRNA in the same SNALP/lipid particle; type: cell-based; settings: for IFN-α induction by NP ssRNA when co-formulated: 0.5 μg/ml NP ssRNA; for IFN-α induction by NP ssRNA when co-formulated / immunostimulatory effects (IFN-α induction) of ApoB antisense ssRNA when co-formulated: 1:1 molar ratio; for IFN-α production induced by the RNA alone: lipid-formulated RNA alone, doses 0.1 to 3 μg/ml; for IFN-α levels induced by β-gal antisense ssRNA when co-encapsulated / IL-6 levels induced by β-gal antisense ssRNA when co-encapsulated: equimolar amounts in the same SNALP; for cytokine production from human PBMCs when co-formulated with immunostimulatory RNA: co-formulated with immunostimulatory ssRNA
Protocol: (§1) All RNA molecules used in this study were heated at 90° C. for 3 min. and then placed at 37° C. for 60 min. Non-denaturing PAGE analysis on a 20% polyacrylamide gel was performed to confirm that ssRNA molecules were intact and that no duplexes had formed upon heating. The RNA molecules were encapsulated in a SNALP formulation comprising PEG-cDMA:DLinDMA:cholesterol:DSPC in a 2:40:48:10 mol % ratio (2:40 SNALP), prepared using a syringe press process.
(§2) Fresh human peripheral blood mononuclear cells (PBMCs) were isolated and seeded at about 3×10^5 cells/well in a total volume of 180 μl. Next, 20 μl of the appropriate SNALP diluted in PBS or 10 μl of naked TLR agonist were added to the PBMCs. For time course experiments, PBMCs were pretreated with UmodS ssRNA or a control and the appropriate naked TLR agonist was added at 0, 0.5, or 2 hours after pretreatment. When the SNALP and naked TLR agonist were added separately, the SNALP was added first followed by the naked TLR agonist. At t=24 hr., the cell supernatant was harvested and IFN-α and/or IL-6 levels were determined using ELISA.
The ssRNA molecules used in this study were heated at 90° C. for 3 min. and then placed at 37° C. for 60 min to disrupt any potential secondary structure. Non-denaturing PAGE analysis on a 20% polyacrylamide gel was performed to confirm that ssRNA molecules were intact and that no duplexes had formed upon heating. siRNA duplexes were prepared by annealing equimolar concentrations of two deprotected and desalted ssRNA oligonucleotides using standard procedures. Formation of annealed siRNA duplexes was confirmed by non-denaturing PAGE analysis on a 20% polyacrylamide gel. The RNA molecules were encapsulated in a 2:40 SNALP formulation prepared using a syringe press process.
Fresh human peripheral blood mononuclear cells (PBMCs) were isolated and seeded at about 3×10^5 cells/well in a total volume of 180 μl. Next, 20 μl of the appropriate SNALP diluted in PBS were added to the PBMCs. At t=24 hr., the cell supernatant was harvested and IFN-α and/or IL-6 levels were determined using an enzyme-linked immunosorbent assay (ELISA). For example, IFN-α and IL-6 levels can be measured using a sandwich ELISA kit available from PBL Biomedical (Piscataway, N.J.) and eBioscience (San Diego, Calif.), respectively.
(§3) Lipid Encapsulation of RNA and ODN. RNA or ODN were encapsulated in liposomes by a process of spontaneous vesicle formation as described in Judge et al., supra, and Jeffs et al., Pharm. Res., 22:362-372 (2005).
(§4) Cell Isolation and Culture. Human PBMCs were isolated from whole blood of healthy donors by a standard Ficoll-Hypaque density centrifugation. Blood was diluted 1:1 with PBS, layered onto Ficoll-Paque Plus, and centrifuged at 1600 RPM for 30 min. PBMCs were washed in PBS twice followed by resuspension in complete media (RPMI 1640, 10% heat inactivated FBS, 2 mM L-glutamine, and 1% penicillin/streptomycin). PBMCs were plated at 2.5×10^5 cells/well in 96 well plates for cytokine induction assays.
(§5) Loxoribine (InvivoGen; San Diego, Calif.), polyIC (Sigma-Aldrich; St. Louis, Mo.), and formulated nucleic acids were diluted in PBS and added to either human PBMC or Flt3L DC cultures. Cells were incubated 24 h at 37° C. before supernatants were assayed for cytokines by ELISA.
(§6) Cytokine ELISA. All cytokines were quantified using sandwich ELISA kits according to the manufacturer's instructions. These were mouse and human IFN-α (PBL Biomedical; Piscataway, N.J.) and IL-6 (eBioscience; San Diego, Calif.).

TLR7 = biological target: T1, TLR7 (Homo sapiens, UniProt Q9NYK1); assay: Loxoribine (TLR7 agonist)-induced IFN-α/IL-6 production in human PBMCs; type: cell-based; settings: SNALP-encapsulated ssRNA added before naked agonist, supernatant at 24 hr, ELISA
T1 construct: Human PBMCs were isolated from whole blood of healthy donors; endogenous in cells; host or cells: primary human PBMCs from healthy donors
T1 sequence (Q9NYK1 27-1049): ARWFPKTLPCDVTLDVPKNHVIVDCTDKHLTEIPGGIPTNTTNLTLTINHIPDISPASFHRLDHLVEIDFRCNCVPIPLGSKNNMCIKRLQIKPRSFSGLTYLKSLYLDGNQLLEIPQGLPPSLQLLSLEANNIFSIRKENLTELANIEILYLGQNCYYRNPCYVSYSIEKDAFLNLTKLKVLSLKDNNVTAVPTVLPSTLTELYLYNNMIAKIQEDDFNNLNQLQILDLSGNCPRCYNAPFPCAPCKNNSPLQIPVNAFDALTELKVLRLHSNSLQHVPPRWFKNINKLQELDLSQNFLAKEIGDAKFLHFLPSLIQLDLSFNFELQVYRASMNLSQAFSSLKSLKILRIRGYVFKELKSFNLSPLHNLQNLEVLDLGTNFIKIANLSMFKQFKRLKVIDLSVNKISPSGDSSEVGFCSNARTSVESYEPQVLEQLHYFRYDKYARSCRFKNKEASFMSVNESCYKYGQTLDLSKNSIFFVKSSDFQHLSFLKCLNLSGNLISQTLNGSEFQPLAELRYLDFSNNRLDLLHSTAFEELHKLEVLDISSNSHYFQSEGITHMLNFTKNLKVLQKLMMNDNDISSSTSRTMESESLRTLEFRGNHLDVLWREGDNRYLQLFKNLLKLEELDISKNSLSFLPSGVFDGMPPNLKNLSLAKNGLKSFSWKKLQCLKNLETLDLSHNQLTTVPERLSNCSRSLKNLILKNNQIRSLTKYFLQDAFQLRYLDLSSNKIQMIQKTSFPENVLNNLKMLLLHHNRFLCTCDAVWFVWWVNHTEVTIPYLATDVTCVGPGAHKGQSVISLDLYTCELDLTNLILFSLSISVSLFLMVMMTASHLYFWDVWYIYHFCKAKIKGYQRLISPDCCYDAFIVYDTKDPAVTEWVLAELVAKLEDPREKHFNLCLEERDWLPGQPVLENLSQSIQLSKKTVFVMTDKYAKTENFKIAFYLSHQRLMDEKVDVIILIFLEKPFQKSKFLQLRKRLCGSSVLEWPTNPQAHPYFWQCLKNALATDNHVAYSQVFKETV
Protocol: as §1, §2, §3, §4, §5, §6

[1] = human PBMCs, co-formulated in the same SNALP, 24 h

βgal-mG: 2′OMe-guanosine modified RNA: CUACACAAAUCAmGCmGAUUUUU (CUACACAAAUCAGCGAUUUUU; sugars from the 5' end r12 m1 r1 m1 r6, backbone not given here)
IFN-α induction by NP ssRNA when co-formulated (TLR7/8; human PBMCs, 24 h): inhibits

βgal-mC: 2′OMe-cytidine RNA: mCUAmCAmCAAAUmCAGmCGAUUUUU (CUACACAAAUCAGCGAUUUUU; 2'-O-methyl at C, RNA at AGU, backbone not given here)
IFN-α induction by NP ssRNA when co-formulated (TLR7/8; human PBMCs, 24 h): not | immunostimulatory effects (IFN-α induction) of ApoB antisense ssRNA when co-formulated (TLR7/8; [1]): do not inhibit

ApoB antisense ssRNA: immunostimulatory antisense ssRNA: AUUGGUAUUCAGUGUGAUGACAC (chemistry not given here) [reference compound]
IFN-α production induced by the RNA alone (TLR7/8; human PBMC cultures): induced high levels of IFN-α | IFN-α production induced by ApoB antisense ssRNA in absence of modified ssRNA (TLR7/8; human PBMCs, SNALP, 24 hr): 5000 to 6000 pg/mL

NP1496: unmodified NP1496 sense strand ssRNA: GGAUCUUAUUUCUUCGGAGUU (RNA, backbone not given here) [reference compound]
immunostimulatory effects (IFN-α induction) of ApoB antisense ssRNA when co-formulated (TLR7/8; [1]): high levels of IFN-α were still induced

NP1496 UmodS: influenza NP1496 sense strand ssRNA with 2′OMe uridines: GGAmUCmUmUAmUmUmUCmUmUCGGAGUU (sense GGAUCUUAUUUCUUCGGAGUU; sugars from the 5' end rrrmrmmrmmmrmmrrrrrrr, backbone not given here)
IFN-α production induced by the RNA alone (TLR7/8; […]): do not induce measurable IFN-α production | immunostimulatory effects of ApoB antisense ssRNA at molar excess of agonist (TLR7/8; human PBMCs, co-formulated in the same SNALP at 1:1, 1:2, or 1:4 molar ratio (up to 4-fold molar excess of agonist)): antagonized | immunostimulatory effects (IFN-α induction) of ApoB antisense ssRNA when co-formulated (TLR7/8; [1]): abolished | immunostimulatory effects (IFN-α induction) of ApoB antisense ssRNA when co-formulated (TLR7/8; human PBMCs, co-formulated in the same SNALP, 24 h, listed as NP-mU): abrogated | immunostimulatory effects (IFN-α induction) of ApoB siRNA duplex when co-formulated (TLR7/8; human PBMCs, co-formulated in the same SNALP, equimolar, 24 h): abrogated | IFN-α levels induced by β-gal antisense ssRNA when co-encapsulated (TLR7/8; human PBMCs, 24 h): abrogated

polyUmod10: 2′OMe-uridine homopolymer of 10 nucleotides in length (UUUUUUUUUU; all 2'-O-methyl, backbone not given here)
cytokine production from human PBMCs when co-formulated with immunostimulatory RNA (TLR7/8; human PBMCs): significantly reduced cytokine induction, although inhibition with these shorter oligonucleotides was not absolute | IFN-α levels induced by β-gal antisense ssRNA when co-encapsulated (TLR7/8; human PBMCs, 24 h): significantly reduced | IL-6 levels induced by β-gal antisense ssRNA when co-encapsulated (TLR7/8; human PBMCs, 24 h): significantly reduced | IFN-α levels induced by β-gal antisense ssRNA when co-encapsulated (TLR7/8; human PBMCs, 24 h, listed as (mU)10): inhibit

NP-mC: 2′OMe-cytidine RNA: GGAUmCUUAUUUmCUUmCGGAGUU (GGAUCUUAUUUCUUCGGAGUU; 2'-O-methyl at C, RNA at AGU, backbone not given here)
immunostimulatory effects (IFN-α induction) of ApoB antisense ssRNA when co-formulated (TLR7/8; [1]): do not inhibit

β-gal [reference compound]
immunostimulatory effects (IFN-α induction) of ApoB antisense ssRNA when co-formulated (TLR7/8; [1]): high levels of IFN-α were still induced

Luc: unmodified Luc sense strand ssRNA: 5′GAUUAUGUCCGGUUAUGUAUU 3′ (sense GAUUAUGUCCGGUUAUGUAUU; RNA, backbone not given here) [reference compound]
immunostimulatory effects (IFN-α induction) of ApoB antisense ssRNA when co-formulated (TLR7/8; [1]): high levels of IFN-α were still induced

polyUmod15: 2′OMe-uridine homopolymer of 15 nucleotides in length (UUUUUUUUUUUUUUU; all 2'-O-methyl, backbone not given here)
cytokine production from human PBMCs when co-formulated with immunostimulatory RNA (TLR7/8; human PBMCs): equally as effective at inhibiting cytokine production | IFN-α levels induced by β-gal antisense ssRNA when co-encapsulated (TLR7/8; human PBMCs, 24 h): significantly reduced | IL-6 levels induced by β-gal antisense ssRNA when co-encapsulated (TLR7/8; human PBMCs, 24 h): significantly reduced | IFN-α levels induced by β-gal antisense ssRNA when co-encapsulated (TLR7/8; human PBMCs, 24 h, listed as (mU)15): inhibit | IL-6 levels induced by naked loxoribine (TLR7): inhibited only IFN-α levels | level of IFN-α induced by naked loxoribine (TLR7): inhibited

βgal-mA: 2′OMe-adenosine modified RNA: CUmACmACmAmAmAUCmAGCGmAUUUU (CUACACAAAUCAGCGAUUUU; 2'-O-methyl at A, RNA at CGU, backbone not given here)
IFN-α induction by NP ssRNA when co-formulated (TLR7/8; human PBMCs, 24 h): inhibits

— US20080171716A1, “NUCLEIC ACID MODULATION OF TOLL-LIKE RECEPTOR-MEDIATED IMMUNE STIMULATION” (Protiva Biotherapeutics, Inc., priority 2006, published 2008)
